PubChem BioAssay (NCI)
Values joined by “and” are separate entries in the source; they are usually repeats but may differ in a detail not shown here. Equal entries are not always repeated.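 Cells were grown in 96-well plates and exposed to each compound for 48 hours at five concentrations; endpoints were interpolated linearly between bracketing concentrations, or set to the highest concentration if not reached. The concentration for 50% growth inhibition is given as GI50. TGI denotes the concentration required for complete inhibition of growth.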

Columns and labels:
Test in all cases: NCI tumour cell line growth inhibition, 48 h
[1] = tested on: CCRF-CEM leukemia
[2] = tested on: DU-145 prostate
[3] = tested on: HOP-62 NSCLC
[4] = tested on: IGROV1 ovarian
[5] = tested on: KM12 colon
[6] = tested on: M14 melanoma
[7] = tested on: OVCAR-4 ovarian
[8] = tested on: SK-MEL-2 melanoma
[9] = tested on: SK-MEL-28 melanoma
[10] = tested on: UACC-257 melanoma

Row | SMILES | GI50 [1] [µM] | TGI [1] | GI50 [2] [µM] | TGI [2] [µM] | GI50 [3] [µM] | TGI [3] | GI50 [4] [µM] | TGI [4] | GI50 [5] [µM] | TGI [5] | GI50 [6] [µM] | TGI [6] [µM] | GI50 [7] [µM] | TGI [7] | GI50 [8] [µM] | TGI [8] | GI50 [9] [µM] | TGI [9] | GI50 [10] [µM] | TGI [10]
1 | C=CC(=O)Nc1cc(Nc2ncc(C(=O)OC(C)C)c(-c3cn(C)c4ccccc34)n2)c(OC)cc1N(C)CCN(C)C | 3.18 | 17.8 µM | 1.19 | 17.6 | 7.13 | 22.8 µM | 0.399 | 3.12 µM | 5.85 | 13.9 µM | 1.87 | 3.74 | 4.97 | 21.3 µM | 4.3 | 11 µM | 2.43 | 6.55 µM | 1.8 | 3.71 µM
2 | Nc1nc(-n2c(-c3ccccc3)nc3c(Br)cc(Br)cc3c2=O)nnc1-c1cccc(Cl)c1Cl | 5.33 | > 100 µM | 27.3 | > 100 | 2.84 | 9.8 µM | 12.9 | 45.9 µM | 3.29 | 63.4 µM | 2.64 | 8.42 | 51.7 | > 100 µM | 83.8 | > 100 µM | > 100 | > 100 µM | 22.3 | > 100 µM
3 | COc1cc2c(c(OC)c1OC)-c1ccc(NNC(N)=S)c(=O)cc1[C@@H](NC(C)=O)CC2 | 0.434 | > 100 µM | 0.341 | 1.44 | 0.739 | > 100 µM | 1.18 | > 100 µM | 0.301 | 1.92 µM | 0.284 | 0.735 | 0.625 | > 100 µM | – | > 100 µM | 0.777 | > 100 µM | – | > 100 µM
4 | OCCN(CCO)c1ncnc2c1ncn2Cc1ccc(CCl)cc1 | 11 | 47.1 µM | 4.42 | 16.1 | 23.8 | 41.1 µM | 19.7 | 40.3 µM | 14.3 | 29.2 µM | 13.8 | 28.4 | 18.8 | 35.4 µM | 16.5 | 41.1 µM | 23.8 | 63.8 µM | 13.8 | 28.9 µM
5 | O=C(Nc1ccccc1)c1c(O)[nH]c(=S)[nH]c1=O | 71.2 | 83.3 µM and > 250 µM | – | 103 | 73.2 | 82.5 µM and > 250 µM | 45.9 | 97.1 µM and > 250 µM | 69.9 | 111 µM and > 250 µM | – | 108 | 87.2 | 103 µM and > 250 µM | 61.6 | 101 µM and 179 µM | 127 | 124 µM and > 250 µM | 83.1 | 112 µM and > 250 µM
6 | Fc1ccc(NC(=S)SCc2ccc3c(c2)OCO3)cc1F | – | 77.3 µM | – | > 100 | – | > 100 µM | – | 39.6 µM | – | 61.7 µM | – | 39.1 | – | > 100 µM | – | 36 µM | – | 13 µM | – | 64 µM
7 | OC1CSSC1Cn1cnc2c(Nc3ccc(OCc4cccc(F)c4)c(Cl)c3)ncnc21 (centres undefined) | 0.656 | 13.9 µM | 1.19 | 4.95 | 0.94 | 2.79 µM | 4.46 | 13.6 µM | 0.386 | 1.43 µM | 0.0912 | 0.288 | 1.27 | 8.53 µM | 0.997 | 3.26 µM | 0.591 | 4.64 µM | 4.09 | 15.4 µM
8 | Cc1ccc(NC(=O)Nc2ccc(-c3cccnc3)cc2N2CCC(CO)CC2)cc1 | 3.57 | > 100 µM | 3.78 | > 100 | 2.41 | > 100 µM | 8.44 | > 100 µM | 1.25 | > 100 µM | 2.95 | 13.9 | 3.53 | > 100 µM | 2.24 | 8.38 µM | 1.49 | 5.42 µM | 2.14 | 9.61 µM
9 | CC1CCc2nc[nH]c(=O)c21 (centres undefined) | > 100 | > 100 µM | > 100 | > 100 | > 100 | > 100 µM | > 100 | > 100 µM | > 100 | > 100 µM | > 100 | > 100 | > 100 | > 100 µM | > 100 | > 100 µM | > 100 | > 100 µM | – | –
10 | COc1cccc(C2c3cc4c(cc3OC(C)(N3CCCC3)C2C)OCO4)c1O (centres undefined) | – | 21.2 µM | – | 15.3 | – | 31.6 µM | – | > 70 µM | – | 27.4 µM | – | 14 | – | > 100 µM | – | > 23.5 µM | – | > 100 µM | – | > 100 µM
11 | Cc1ccc(CN2CCC(C(=O)Nc3ccc(-c4cc5ccccc5[nH]4)cc3)CC2)o1 | > 100 | > 100 µM | > 100 | > 100 | 55.8 | > 100 µM | > 100 | > 100 µM | 83.9 | > 100 µM | 66.1 | > 100 | 70.1 | > 100 µM | > 100 | > 100 µM | 88.9 | > 100 µM | > 100 | > 100 µM
12 | CCOC1Oc2ccccc2C(=O)/C1=C/Nc1ccc(C(C)=O)cc1 (centres undefined) | 19.2 | 62.2 µM | 29.6 | > 100 | 18.5 | 40 µM | 19.5 | > 100 µM | 19.1 | 50.2 µM | 17.4 | 35.9 | 49 | > 100 µM | 40.1 | > 100 µM | 44.8 | > 100 µM | 19.7 | 46.9 µM
13 | Cn1cc(C2=C(c3c4n(c5ccccc35)CCCCC4)C(=O)NC2=O)c2ccccc21 | 5.21 | > 22.7 µM | 5.4 | > 17.3 | > 12.5 | > 25 µM | 3.55 | > 25 µM | 2.97 | > 25 µM | 4.69 | > 25 | 7.32 | > 25 µM | 2.12 | > 18.8 µM | 12.6 | > 25 µM | > 25 | > 25 µM
